# Assay results taken from US9120749B2, “Quinoline derivatives and MELK inhibitors containing the same” (ONCOTHERAPY SCIENCE, INC., priority 2010, dated 2015).
# Where a name gives a salt, the structure may show the parent alone. Read-outs that look alike come from different tables or passages of the source.
# Tests used:
# DU4475 = experiment: Cell-based assay: anti-proliferative activity, Cell Counting Kit-8, 72 hours (DU4475); settings: Homo sapiens, DU-4475, DU4475 cells
# A549 cells = experiment: Cell-based assay: anti-proliferative activity, Cell Counting Kit-8, 72 hours (A549)
# In short: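 A549 cells seeded in 96-well plates and exposed to candidate inhibitors for 72 hours. Growth measured with Cell Counting Kit-8; IC50 values calculated from the dose response.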
# T47D cells = experiment: Cell-based assay: anti-proliferative activity, Cell Counting Kit-8, 72 hours (T47D)
# In short: (§1)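 Target-specific cytotoxicity: seeded cells treated with MELK inhibitor candidates for 72 h, proliferation quantified via CCK-8, IC50 fitted.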
# HT-1197 cells = experiment: Cell-based assay: anti-proliferative activity, Cell Counting Kit-8, 72 hours (HT-1197, negative control without MELK expression)
# In short: as §1
# MELK = MELK (Homo sapiens, UniProt Q14680); experiment: Kinase assay: MELK activity, phosphorylation of FITC-labeled histone H3 peptide measured by IMAP fluorescence polarization; format: biochemical; settings: read-out: IC50 (μM) (kinase assay)
# In short: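 Polarization of fluorescence served as the signal for MELK turnover of FITC-conjugated histone H3 peptide. Binding solution quenched each reaction, and plates stood 0.5 hour at room temperature before reading.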
# BT-549 cells = experiment: Cell-based assay: anti-proliferative activity, Cell Counting Kit-8, 72 hours (BT-549); settings: BT549 cells, MELK-expressing, Cell Counting Kit-8 at 72 hours
# In short: as §1
# [1] = Homo sapiens, A549, 72 h, 72 hours
# [2] = Homo sapiens, HT1197, 72 h, HT1197 cells (negative control, no MELK expression), 72 hours
# [3] = 50 micro-M ATP, FITC-labeled histone H3 peptide substrate, IMAP fluorescence polarization
# [4] = Homo sapiens, A549, 72 h, MELK-expressing, Cell Counting Kit-8 at 72 hours
# [5] = Homo sapiens, T47D, 72 h, MELK-expressing, Cell Counting Kit-8 at 72 hours
# [6] = Homo sapiens, HT1197, 72 h, HT1197 cells, no MELK expression (negative control), Cell Counting Kit-8 at 72 hours
# [7] = MELK-expressing, Cell Counting Kit-8 at 72 hours, dihydrochloride
# Chain of MELK (Q14680 whole entry, looked up): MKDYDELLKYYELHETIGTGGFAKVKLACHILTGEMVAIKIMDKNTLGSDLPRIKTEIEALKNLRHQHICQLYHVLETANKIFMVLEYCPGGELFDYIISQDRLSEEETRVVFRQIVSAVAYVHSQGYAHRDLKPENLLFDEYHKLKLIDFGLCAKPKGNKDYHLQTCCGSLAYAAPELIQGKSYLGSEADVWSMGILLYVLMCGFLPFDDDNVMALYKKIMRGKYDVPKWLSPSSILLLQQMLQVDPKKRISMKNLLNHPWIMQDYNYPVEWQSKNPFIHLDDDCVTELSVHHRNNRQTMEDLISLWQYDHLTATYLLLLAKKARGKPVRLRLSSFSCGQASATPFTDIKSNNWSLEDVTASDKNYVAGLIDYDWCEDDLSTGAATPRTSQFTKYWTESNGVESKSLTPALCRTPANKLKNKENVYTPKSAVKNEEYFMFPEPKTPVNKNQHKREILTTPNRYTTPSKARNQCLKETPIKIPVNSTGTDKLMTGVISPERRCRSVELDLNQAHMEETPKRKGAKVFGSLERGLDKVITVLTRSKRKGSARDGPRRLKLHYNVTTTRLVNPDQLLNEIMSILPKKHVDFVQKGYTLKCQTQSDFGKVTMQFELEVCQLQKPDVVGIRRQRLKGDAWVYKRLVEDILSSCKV
SMILES,IC50 (DU4475),IC50 (A549 cells; [1]),"IC50 (T47D cells; Homo sapiens, T47D, 72 h)",IC50 (HT-1197 cells; [2]),IC50 (MELK; [3]),other results
CN(C)CC1CCN(c2c([S+](C)[O-])cnc3ccc(-c4cc(F)c(O)c(Cl)c4)cc23)CC1 (stereo not drawn) [Example 467],1.2 µM,13 µM,1.5 µM,35 µM,,IC50 (MELK): 0.011 µM
"CC(=O)c1cnc2ccc(-c3cc(F)c(O)c(Cl)c3)cc2c1N1CCN(C(=O)CN(C)C)CC1 [Example 484, 1-(4-(3-acetyl-6-(3-chloro-5-fluoro-4-hydroxyphenyl)quinolin-4-yl)piperazin-1-yl)-2-(dimethylamino)ethanone]",0.58 µM,3.4 µM,1.1 µM,17 µM,,IC50 (MELK): 0.0069 µM
"CN1CCN(c2ncc(-c3c(C(=O)C4CC4)cnc4ccc(-c5cc(Cl)c(O)c(Cl)c5)cc34)cn2)CC1 [Example 479, cyclopropyl(6-(3,5-dichloro-4-hydroxyphenyl)-4-(2-(4-methylpiperazin-1-yl)pyrimidin-5-yl)quinolin-3-yl)methanone]",1.7 µM,1.7 µM,0.92 µM,7.9 µM,,IC50 (MELK): 0.04 µM
CN(C)CC(=O)N1CC2CC1CN2c1c(C(=O)C2CC2)cnc2ccc(-c3ccc(O)c(Cl)c3)cc12 (stereo not drawn) [Example 464],3.4 µM,5.5 µM,6.6 µM,17 µM,0.051 µM,
"CN(C)Cc1ccc(Nc2c(C(=O)C3CCCC3)cnc3ccc(-c4cc(F)c(O)c(Cl)c4)cc23)cc1 [Example 388, (6-(3-chloro-5-fluoro-4-hydroxyphenyl)-4-(4-((dimethylamino)methyl)phenylamino)quinolin-3-yl)(cyclopentyl)methanone]",0.21 µM,0.52 µM,0.52 µM,1.5 µM,0.014 µM,
"COc1cc(-c2ccc3ncc(C(=O)C4CC4)c(N4CCN(CCN5CCCC5)CC4)c3c2)cc(Cl)c1O [Example 394, (6-(3-chloro-4-hydroxy-5-methoxyphenyl)-4-(4-(2-(pyrrolidin-1-yl)ethyl)piperazin-1-yl)quinolin-3-yl)(cyclopropyl)methanone]",0.24 µM,0.25 µM,0.4 µM,5.3 µM,0.0018 µM,
O=C(c1cnc2ccc(-c3cc(F)c(O)c(Cl)c3)cc2c1Nc1ccc(CN2CCOCC2)cc1)C1CC1 [Example 460],0.42 µM,0.59 µM,0.65 µM,4.2 µM,0.083 µM,
"COc1cc(-c2ccc3ncc(C(C)=O)c(Nc4ccc(N5CCN(C)CC5)nc4)c3c2)cc(Cl)c1O [Example 483, 1-(6-(3-chloro-4-hydroxy-5-methoxyphenyl)-4-(6-(4-methylpiperazin-1-yl)pyridin-3-ylamino)quinolin-3-yl)ethanone]",0.69 µM,0.64 µM,0.64 µM,0.89 µM,,IC50 (MELK): 0.016 µM
"CN1CCN(Cc2cccc(-c3c(C(=O)C4CC4)cnc4ccc(-c5cc(Cl)c(O)c(Cl)c5)cc34)c2)CC1 [Example 478, cyclopropyl(6-(3,5-dichloro-4-hydroxyphenyl)-4-(3-((4-methylpiperazin-1-yl)methyl)phenyl)quinolin-3-yl)methanone]",0.75 µM,0.87 µM,0.53 µM,2.9 µM,,IC50 (MELK): 0.0078 µM
CN(C)Cc1ccc(Nc2c([S+](C)[O-])cnc3ccc(-c4cc(Cl)c(O)c(Cl)c4)cc23)cc1 (stereo not drawn) [Example 473],0.6 µM,1.2 µM,0.43 µM,2.4 µM,,
COc1cc(-c2ccc3ncc(C(=O)C4CC4)c(Nc4ccc(CN5CCOCC5)cc4)c3c2)cc(Cl)c1O [Example 462],1.1 µM,0.7 µM,0.44 µM,6 µM,0.066 µM,
O=C(c1cnc2ccc(-c3cc(Cl)c(O)c(Cl)c3)cc2c1Nc1ccc(CN2CCOCC2)cc1)C1CC1 [Example 463],0.26 µM,0.43 µM,0.52 µM,3.6 µM,,
COc1cc(-c2ccc3ncc(C#N)c(N[C@H]4CC[C@H](N(C)C)CC4)c3c2)cc(Cl)c1O [Example 447],0.076 µM,0.4 µM,0.15 µM,2 µM,,
"N#Cc1ncc(-c2ccc3ncc(C(=O)C4CC4)c(Nc4ccc(CN)cc4)c3c2)cn1 [Example 509, 5-(4-(4-(aminomethyl)phenylamino)-3-(cyclopropanecarbonyl)quinolin-6-yl)pyrimidine-2-carbonitrile]",0.6 µM,0.79 µM,0.19 µM,0.95 µM,,
"CN1CCN(Cc2ccc(-c3c(C(=O)C4CC4)cnc4ccc(-c5cc(Cl)c(O)c(Cl)c5)cc34)cc2)CC1 [Example 482, cyclopropyl(6-(3,5-dichloro-4-hydroxyphenyl)-4-(4-((4-methylpiperazin-1-yl)methyl)phenyl)quinolin-3-yl)methanone]",0.9 µM,0.96 µM,0.54 µM,3.1 µM,,
COc1cc(-c2ccc3ncc([S+](C)[O-])c(N[C@H]4CC[C@H](N)CC4)c3c2)cc(Cl)c1O (stereo partly drawn) [Example 500],1.8 µM,4.5 µM,1.6 µM,13 µM,,
"COc1cc(-c2ccc3ncc(C(=O)C4CC4)c(N[C@H]4CC[C@H](N)CC4)c3c2)ccc1O [Example 81, {4-[trans-4-Aminocyclohexylamino]-6-(4-hydroxy-3-methoxyphenyl)quinolin-3-yl}(cyclopropyl)methanone]",,,,,0.007 µM,"IC50 (BT-549 cells; Homo sapiens, BT-549, 72 h): 0.55 µM; IC50 (A549 cells; [4]): 0.23 µM; IC50 (T47D cells; [5]): 0.13 µM; IC50 (HT-1197 cells; [6]): 1.2 µM"
"CN(C)CC1CCN(c2c(C(=O)C3CC3)cnc3ccc(-c4cc(F)c(O)c(Cl)c4)cc23)CC1 [Example 347, [6-(3-Chloro-5-fluoro-4-hydroxyphenyl)-4-{4-[(dimethylamino)methyl]piperidin-1-yl}quinolin-3-yl](cyclopropyl)methanone]",,,,,0.0024 µM,"IC50 (BT-549 cells; Homo sapiens, BT-549, 72 h): 0.62 µM; IC50 (A549 cells; [4]): 0.48 µM; IC50 (T47D cells; [5]): 0.42 µM; IC50 (HT-1197 cells; [6]): 1.8 µM"
"COc1cc(-c2ccc3ncc(C(=O)C4CC4)c(N[C@H]4CC[C@H](N(C)C)CC4)c3c2)cc(Cl)c1O [Example 255, {6-(3-Chloro-4-hydroxy-5-methoxyphenyl)-4-[trans-4-(dimethylamino)cyclohexylamino]quinolin-3-yl}(cyclopropyl)methanone]",,,,,0.0019 µM,"IC50 (BT-549 cells; Homo sapiens, BT-549, 72 h): 0.64 µM; IC50 (A549 cells; [4]): 0.18 µM; IC50 (T47D cells; [5]): 0.28 µM; IC50 (HT-1197 cells; [6]): 1.9 µM"
"N[C@H]1CC[C@H](Nc2c(C(=O)C3CC3)cnc3ccc(-c4cc(Cl)c(O)c(Cl)c4)cc23)CC1 [Example 157(b), {4-[trans-4-Aminocyclohexylamino]-6-(3,5-dichloro-4-hydroxyphenyl)quinolin-3-yl}(cyclopropyl)methanone dihydrochloride]",,,,,,"IC50 (BT-549 cells; dihydrochloride): 0.31 µM; IC50 (A549 cells; [7]): 0.3 µM; IC50 (T47D cells; [7]): 0.096 µM; IC50 (HT-1197 cells; HT1197 cells, no MELK expression (negative control), Cell Counting Kit-8 at 72 hours, dihydrochloride): 4.7 µM; IC50 (MELK; 50 micro-M ATP, FITC-labeled histone H3 peptide substrate, IMAP fluorescence polarization, dihydrochloride): 0.003 µM"
"CCN(CC)C1CCC(Nc2c(C(C)=O)cnc3ccc(-c4ccc(O)c(Cl)c4)cc23)CC1 (stereo not drawn) [Example 335, 1-{6-(3-Chloro-4-hydroxyphenyl)-4-[4-(diethylamino)cyclohexylamino]quinolin-3-yl}ethanone]",,,,,0.021 µM,"IC50 (BT-549 cells; Homo sapiens, BT-549, 72 h): 0.65 µM; IC50 (A549 cells; [4]): 0.29 µM; IC50 (T47D cells; [5]): 0.1 µM; IC50 (HT-1197 cells; [6]): 1.2 µM"
"COc1cc(-c2ccc3ncc(C(=O)C4CC4)c(NC4CCN(C)CC4)c3c2)ccc1O [Example 177, Cyclopropyl[6-(4-hydroxy-3-methoxyphenyl)-4-(1-methylpiperidin-4-ylamino)quinolin-3-yl]methanone]",,,,,0.026 µM,"IC50 (BT-549 cells; Homo sapiens, BT-549, 72 h): 2.6 µM; IC50 (A549 cells; [4]): 0.83 µM; IC50 (T47D cells; [5]): 0.88 µM; IC50 (HT-1197 cells; [6]): 2.3 µM"
"O=C(c1cnc2ccc(-c3cc(F)c(O)c(Cl)c3)cc2c1N1CCC(CN2CCCC2)CC1)C1CC1 [Example 283, {6-(3-Chloro-5-fluoro-4-hydroxyphenyl)-4-[4-(pyrrolidin-1-ylmethyl)piperidin-1-yl]quinolin-3-yl}(cyclopropyl)methanone]",,,,,0.0029 µM,"IC50 (BT-549 cells; Homo sapiens, BT-549, 72 h): 0.72 µM; IC50 (A549 cells; [4]): 0.54 µM; IC50 (T47D cells; [5]): 0.35 µM; IC50 (HT-1197 cells; [6]): 3 µM"
"CCN(CC)C1CCC(Nc2c(C(C)=O)cnc3ccc(-c4cc(Cl)c(O)c(OC)c4)cc23)CC1 (stereo not drawn) [Example 303, 1-{6-(3-Chloro-4-hydroxy-5-methoxyphenyl)-4-[4-(diethylamino)cyclohexylamino]quinolin-3-yl}ethanone]",,,,,0.0061 µM,"IC50 (BT-549 cells; Homo sapiens, BT-549, 72 h): 1.7 µM; IC50 (A549 cells; [4]): 0.35 µM; IC50 (T47D cells; [5]): 0.39 µM; IC50 (HT-1197 cells; [6]): 7.4 µM"
